Data reported in paper PMC8959576 (Frontiers in Immunology, 2022).

How the values were obtained:
TLR2 = conditions: cited from earlier work
Description: In recent years, a variety of lipopeptides have been designed and synthesized to exert adjuvant effects through activating TLR2 ([18]–[20]). […] The TLR2 activity of FSL-1 can reach 4 times that of MALP-2, while Pam2CSK4 is the ...

[1] = biological target: T1, HEK-Blue mTLR2 cells (TLR2) (Mus musculus, UniProt Q9QUN7); experiment: TLR2 signaling assay (SEAP activity, HEK-Blue detection); format: cell-based; conditions: 14 h at 37°C, read at 620 nm, n=3, Figure 2A
T1 construct: host or cells: HEK-Blue mTLR2 cells (HEK293-derived reporter line)
T1 sequence (Q9QUN7 25-784): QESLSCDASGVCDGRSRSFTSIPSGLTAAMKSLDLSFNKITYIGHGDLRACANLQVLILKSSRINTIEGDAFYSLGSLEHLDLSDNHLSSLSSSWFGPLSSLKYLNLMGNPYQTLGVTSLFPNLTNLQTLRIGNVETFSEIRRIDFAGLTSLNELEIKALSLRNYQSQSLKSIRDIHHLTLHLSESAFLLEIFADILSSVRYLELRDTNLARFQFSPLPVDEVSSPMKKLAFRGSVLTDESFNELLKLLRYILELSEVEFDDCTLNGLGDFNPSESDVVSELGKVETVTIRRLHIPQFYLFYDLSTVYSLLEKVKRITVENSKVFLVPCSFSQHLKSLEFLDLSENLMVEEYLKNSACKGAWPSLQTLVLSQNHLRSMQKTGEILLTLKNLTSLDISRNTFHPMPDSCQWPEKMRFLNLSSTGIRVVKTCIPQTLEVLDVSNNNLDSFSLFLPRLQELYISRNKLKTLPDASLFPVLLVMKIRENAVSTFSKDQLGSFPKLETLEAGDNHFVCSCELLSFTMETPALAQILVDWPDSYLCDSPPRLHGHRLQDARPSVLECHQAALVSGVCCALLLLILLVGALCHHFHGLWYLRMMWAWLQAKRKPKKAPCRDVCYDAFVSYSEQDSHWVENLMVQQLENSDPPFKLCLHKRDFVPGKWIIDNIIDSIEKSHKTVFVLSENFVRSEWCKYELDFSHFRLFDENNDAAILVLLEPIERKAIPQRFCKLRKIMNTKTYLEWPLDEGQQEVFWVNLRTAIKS
Procedure: HEK-Blue™ detection was prepared according to manufacturer’s instruction. Briefly, the lipopeptides were added into a flat-bottom 96-well plate (20μL per well) and endotoxin-free water was used as a negative control. Then HEK-Blue™ mTLR2 cells were suspended in HEK-Blue™ detection and added into the plate (180μL per well, 5×10^4 cells). After incubation at 37°C for 14h, the SEAP activity was measured by a spectrophotometer at 620nm.

BALB/c mice [2] = experiment: Intranasal immunization with SARS-CoV-2 rRBD plus lipopeptide, specific antibody ELISA; conditions: for RBD-specific serum IgG / RBD-specific serum IgA: intranasal rRBD with or without lipopeptide; for RBD-specific serum IgG: n=5, Figure 8A; for RBD-specific serum IgA: n=5, Figure 8B; for RBD-specific serum IgG1 compared with rRBD alone group: n=5, Figure 8C
Procedure: (§2) For OVA immunization, mice were divided into 7 groups randomly. Mice were the mice were anesthetized with pentobarbital sodium (50 mg/kg) and then intranasally immunized with PBS, OVA (10 μg), OVA (10 μg) plus one of the following lipopeptides: LP1-30, LP1-34, LP2-2 and LP2-3 or OVA plus Pam2CSK4 on day 0, 14, 28. […] For SARS-CoV-2 recombinant RBD (rRBD) immunization, mice were intranasally immunized at two-week intervals with PBS, rRBD, rRBD plus LP1-34, rRBD plus LP2-2 or rRBD plus Pam2CSK4. Two weeks post the final immunization, mice were sacrificed and sera, saliva, stomach homogenates, intestinal lavage fluid and vaginal wash were collected for further analysis.
(§3) Specific IgG and sIgA levels were determined by standard indirect ELISA. 96-well flat bottom plates were coated with OVA or rRBD and incubated overnight at 4°C. After blocking with 5% BSA in PBST, the diluted samples were added into the plates and incubated at 37°C for 1h. HRP-conjugated goat anti-mouse IgG, IgG1, IgG2a or IgA was used as a secondary antibody. TMB substrate solution was added each well and incubated about 5-10 min. Then, the reaction was ended by adding stop solution. Finally, the optical density was detected by at 450nm in a micro-plate reader (Thermo Scientific).

BALB/c mice [3] = experiment: Intranasal immunization with OVA plus lipopeptide, specific antibody ELISA; conditions: for serum OVA-specific IgA / serum OVA-specific IgG: intranasal OVA (10 μg) plus lipopeptide, day 0, 14, 28, sera 14 days after final immunization, compared with OVA alone; for serum OVA-specific IgA / serum OVA-specific IgG / serum OVA-specific IgG response compared with Pam2CSK4 / vaginal OVA-specific IgG compared with Pam2CSK4: n=5; for serum OVA-specific IgG response compared with Pam2CSK4 / serum OVA-specific IgG2a levels: intranasal OVA plus lipopeptide; for serum OVA-specific IgG2a levels: n=5, Figure 4H; for OVA-specific sIgA in BALF compared with Pam2CSK4: n=5, Figures 5J, K; for vaginal OVA-specific IgG compared with Pam2CSK4: vaginal wash, only adjuvanted with LP2-2 reached significance
Procedure: as §2, §3

SARS-CoV-2 pseudovirus = conditions: in vivo
RBD-ACE2 interaction = experiment: SARS-CoV-2 neutralizing antibody detection (ELISA) after rRBD immunization; conditions: for rRBD-induced SARS-CoV-2 neutralizing antibody in sera (inhibition of RBD-ACE2 interaction): n=5, compared with rRBD alone group, Figures 9A, B
Procedure: For SARS-CoV-2 recombinant RBD (rRBD) immunization, mice were intranasally immunized at two-week intervals with PBS, rRBD, rRBD plus LP1-34, rRBD plus LP2-2 or rRBD plus Pam2CSK4. Two weeks post the final immunization, mice were sacrificed and sera, saliva, stomach homogenates, intestinal lavage fluid and vaginal wash were collected for further analysis.
SARS-CoV-2 neutralizing antibody detection was performed according to the manufacturer’s instruction (zybio). Briefly, the diluted sera, BALF or nasal wash mixed with HRP-conjugated RBD were added into the hACE2-coated plate, and then the plate was incubated at 37°C for 1h. After washing the plate, the TMB substrate was added and incubated at 37°C for 10min. Finally, the reaction was ended by adding the stop solution and the absorbance was measured with a micro-plate reader (Thermo Scientific) at 450 nm.

BALB/c mice [4] = format: in vivo, mouse; conditions: splenic lymphocytes, 10 μg/mL peptide, 48 h, n=5, Figure 6
[5] = cited from earlier work
Description: A number of studies have shown that lipopeptides have a significant mucosal adjuvant effect ([36]–[38]). MALP-2, the mycoplasma-derived lipopeptide, elevated the level of sIgA in BALF and vaginal lavages when intranasal co-administration with a soluble antigen ([25]).

BMDCs [6] = experiment: Cytokines assay (ELISA of BMDC supernatants); format: cell-based, mouse; conditions: lipopeptide 1 μg/mL, 48 h, n=3, Figure 3G
Procedure: (§1) Bone marrow-derived dendritic cells (BMDCs) were isolated using methods described previously ([26], [27]). Briefly, the cells were obtained by flushing the femurs of female BALB/C mice, then differentiated in RPMI 1640 medium containing 10% FBS and supplemented with IL-4 (10ng/mL) and GM-CSF (10ng/mL) for 7 days at 37°C in 5% CO2.
BMDCs (4 × 10^6 cells/well in 4mL RMPI-1640 medium) were stimulated with either synthetic lipopeptide (1 μg/mL) or PBS for 48 h. The expressions of IL-1β, TNF-α and IL-12 were analyzed by ELISA kit according to the manufacturer’s instructions.

BMDCs [7] = experiment: BMDC maturation surface markers by flow cytometry; format: cell-based, mouse; conditions: BMDCs stimulated 2 days, FACS, Figures 3A-D
Procedure: as §1
BMDCs were collected after being treated with each lipopeptidet for 48h. The expressions of surface markers on BMDCs were detected by FCM with a FACS Canto II (BD Biosciences). The cells were stained with CD11c-FITC (Biolegend, 117306), CD86-PerCP (Biolegend, 105026), CD80-APC (Biolegend, 104714) and CD40-PE (Biolegend, 124610) at 4°C for 30min. After washing with PBS, the expression of costimulatory molecules was detected by flow cytometer.

BMDCs [8] = experiment: Cell viability assay (MTT); format: cell-based, mouse; conditions: test concentrations 10-200μg/mL, 48 h, n=3, Figure S3A
Procedure: The cell viability was analyzed by MTT assay. Briefly, BMDCs were cultured with gradient dilutions of each lipopeptide for 48 h. After that, 20 μL of a MTT solution (5 mg/ml) were added per well and incubated at 37°C for 4 h. Then, the mixture was removed from the well and 100 μL DMSO were added. The absorbance was detected at a wavelength of 570 nm. % surviving cells = Mean optical absorption of cells exposed to the lipopeptide/Mean optical absorption of control cells × 100.
as §1

Row | Substance | SEAP activity compared with Pam2CSK4 [1] | RBD-specific serum IgG (BALB/c mice [2]) | RBD-specific serum IgA (BALB/c mice [2]) | RBD-specific serum IgG1 compared with rRBD alone group (BALB/c mice [2]) | RBD-specific serum IgG2a compared with rRBD alone group (BALB/c mice [2]; n=5, Figure 8D) | serum OVA-specific IgA (BALB/c mice [3]) | serum OVA-specific IgG (BALB/c mice [3]) | serum OVA-specific IgG2a levels (BALB/c mice [3]) | vaginal OVA-specific IgG compared with Pam2CSK4 (BALB/c mice [3]) | SARS-CoV-2 pseudovirus neutralizing antibody titers in serum (SARS-CoV-2 pseudovirus) | rRBD-induced SARS-CoV-2 neutralizing antibody in sera (inhibition of RBD-ACE2 interaction) (RBD-ACE2 interaction) | other results
1 | FSL-2 | – | – | – | – | – | – | – | – | – | – | – | TLR2 activity of FSL-2 relative to that of FSL-1 (TLR2): 80%
2 | Pam2Cys-SEFAHPRHG [LP2-2] | more increased SEAP activity than Pam2CSK4 | significantly improved | significantly improved | elevated | elevated | significantly increased | significantly increased | elevated | higher level | significantly augment | significantly elevated | serum OVA-specific IgG response compared with Pam2CSK4 (BALB/c mice [3]): more robust; OVA-specific sIgA in BALF compared with Pam2CSK4 (BALB/c mice [3]): higher level
3 | Pam2CSK4 [reference compound] | – | significantly improved | significantly improved | elevated | elevated | – | – | elevated | – | significantly augment | significantly elevated | TLR2 agonist potency rank among the four lipopeptides (FSL-1, FSL-2, MALP-2, Pam2CSK4) (TLR2): most potent TLR2 agonist; IFN-γ-forming OVA257-264-specific CD8+ T cell response (BALB/c mice [4]): slightly elevated; IFN-γ-forming OVA323-339-specific CD4+ T cell response (BALB/c mice [4]): slightly elevated
4 | MALP-2 | – | – | – | – | – | – | – | – | – | – | – | sIgA in BALF and vaginal lavages ([5]; intranasal co-administration with a soluble antigen): elevated
5 | Pam2Cys-SLARRNDTN [LP1-30] | more increased SEAP activity than Pam2CSK4 | – | – | – | – | significantly increased | significantly increased | – | higher level | – | – | levels of IL-12 from BMDCs compared with Pam2CSK4 (BMDCs [6]): higher levels; stimulating effect on costimulatory molecule expression of BMDCs compared with Pam2CSK4 (BMDCs [7]): more potent stimulating effect; anti-lipopeptide IgG antibodies in sera (BALB/c mice [3]; OVA+LP1-30 group, ELISA, n=5, Figure S4): did not reach statistical significance
6 | Pam2Cys-SHYAPLPDS [LP1-34] | more increased SEAP activity than Pam2CSK4 | significantly improved | significantly improved | elevated | elevated | significantly increased | significantly increased | – | higher level | significantly augment | significantly elevated | levels of IL-12 from BMDCs compared with Pam2CSK4 (BMDCs [6]): higher levels; ability to enhance the level of RBD-specific mucosal sIgA and IgG compared with Pam2CSK4 (BALB/c mice [2]; intranasal rRBD plus lipopeptide, n=5): stronger; rank of RBD-specific IgG2a response among LP1-34, LP2-2 and Pam2CSK4 (BALB/c mice [2]; n=5, Figure 8D): highest; OVA-specific sIgA in BALF compared with Pam2CSK4 (BALB/c mice [3]): higher level; ability of BALF and nasal wash to inhibit RBD interaction with ACE2 (RBD-ACE2 interaction; n=5, Figures 9C, D): improved
7 | Pam2Cys-SEFQATYAP [LP2-3] | more increased SEAP activity than Pam2CSK4 | – | – | – | – | significantly increased | significantly increased | elevated | – | – | – | serum OVA-specific IgG response compared with Pam2CSK4 (BALB/c mice [3]): more robust
8 | Pam2Cys-SKHANNTHA [LP1-14, novel synthetic lipopeptide] | more increased SEAP activity than Pam2CSK4 | – | – | – | – | – | – | – | – | – | – | cytotoxicity on BMDCs (MTT) (BMDCs [8]): slightly cytotoxic
9 | FSL-1 | – | – | – | – | – | – | – | – | – | – | – | TLR2 activity of FSL-1 relative to that of MALP-2 (TLR2): 4 times; EV71-specific IgG and IgA in serum, nasal washes, BALF, and feces compared with the control group ([5]; intranasal, inactivated EV71 vaccine plus FSL-1): higher level
